Measurements: paper PMC11204085, “Molecular Characterization of Chemosensory Protein (CSP) Genes and the Involvement of AgifCSP5 in the Perception of Host Location in the Aphid Parasitoid Aphidius gifuensis” (International Journal of Molecular Sciences, 2024)
“Also recorded” adds a separate entry of the source. Where two headings read alike, the source gives them in different places.

Legend:
[1] = target: AgifCSP5 (Aphidius gifuensis, UniProt A0A3Q9ELG9); test: Fluorescence competitive binding assay with 1-NPN probe, wild-type AgifCSP5; settings: for Binding affinity in words: wild-type AgifCSP5
AgifCSP5, sequence (A0A3Q9ELG9 entry or part of it): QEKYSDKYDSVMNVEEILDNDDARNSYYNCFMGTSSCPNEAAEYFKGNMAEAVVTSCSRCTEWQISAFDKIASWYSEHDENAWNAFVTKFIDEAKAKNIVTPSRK
Text: (§1) The candidate VOCs were mainly derived from various organic volatiles in wheat field habitats, referring to the compounds related to wheat plants and wheat aphids previously reported in a published paper by Jiang et al. in 2022 and 2023 [11, 12], including four groups of ligands: (1) aphid alarm pheromone components; (2) aphid sex pheromone; (3) green leaf volatiles of wheat; and (4) aphid-induced plant volatiles. […] The classes, CAS numbers, and purities of the chemicals used in these assays are listed in Appendix B. A Lengguang 970CRT spectrofluorimeter (Shanghai Jingmi, Shanghai, China) equipped with a 1 cm light path fluorimeter quartz cuvette was used to record the fluorescence intensity at room temperature with the following parameters: the excitation wavelength was set at 337 nm, the emission light wavelength was recorded at 350–500 nm, the high-speed scan mode was used, and the slit width was 10 nm. To determine the binding affinity of 1-NPN for AgifCSP5 proteins, a 2 µM protein solution diluted with 50 mM Tris-HCl at pH 7.4 was titrated with aliquots of the 1 mM 1-NPN stock solution to final concentrations ranging from 2–40 μM. Ligands bound to AgifCSP5 have a protein:ligand ratio of 1:1. Three independent repeats were carried out for all measurements. The binding affinity of AgifCSP5 for all ligands was calculated by the formula Ki = [IC50]/(1 + [1 − NPN]/K1-NPN), where the IC50 is defined as the concentration of a competitor that caused a 50% reduction in fluorescence intensity, K1-NPN is the dissociation constant (Kd) of the AgifCSP5/1-NPN complex, and [1-NPN] is the free concentration of 1-NPN.

[2] = tested on: A. gifuensis adults; test: Y-tube olfactometer assay; format: in vivo, Aphidius gifuensis
Description: The behavioral responses of A. gifuensis to volatiles were tested using a Y-tube olfactometer (3.5 cm in diameter, arms 20 cm in length, and a stem 20 cm in length). The assay method was described by Guo et al., and minor improvements were made. The incoming air at a constant flow (300 mL/min) was first filtered using allochroic silica gel and activated carbon and then humidified with ultrapure water. The test compounds were serially diluted with paraffin oil to concentrations of 0.01, 0.1, 1, 10, and 100mg/mL. A total of 10 μL of tested volatile oil preloaded onto 1 cm diameter filter paper was placed in the chamber of the chosen treatment arm of the Y-tube olfactometer, and the same filter paper in another chamber of the chosen control arm was loaded with 10 μL of liquid paraffin. The choice of each adult introduced into the Y-tube stem within 5 min was recorded. The experiments were performed in a dark room at room temperature (25 ± 1 °C), and a light-emitting diode installed at 30 cm was used as the light source. In total, no fewer than 60 adults (at least 30 from each sex) were used in each treatment. After 5 insects were tested, we switched the positions of the volatile arm and the control arm, and after a total of 10 insects were tested, the Y-tube olfactometer was washed with 75% ethanol and air-dried.

[3] = target: R24A mutant of AgifCSP5 (Aphidius gifuensis, UniProt A0A3Q9ELG9, R44A); test: Fluorescence competitive binding assay, R24A mutant
R24A mutant of AgifCSP5, sequence (A0A3Q9ELG9 entry or part of it R44A): as the sequence (A0A3Q9ELG9 entry or part of it) above, with R24A counted along it
Text: as §1
(§2) The mutagenesis primers for the targeted key amino acid residues were designed online (https://crm.vazyme.com/cetool/singlepoint.html (accessed on 24 December 2023)) according to the protocols of the Mut Express II Fast Mutagenesis Kit V2 (Vazyme, China) (Appendix B). Mutations were obtained by using Phanta Max Superfidelity DNA Polymerase with recombinant Plasmid pET-30a/AgifCSP5 plasmid DNA as a template. The plasmids of the mutants were verified by DNA sequencing. The mutated proteins were then expressed and purified, as described above. After protein concentration determination, the binding affinities of the mutants with ligands that previously bound well to the AgifCSP5 protein were verified using fluorescence competitive binding assays.

[4] = target: Y75A mutant of AgifCSP5 (Aphidius gifuensis, UniProt A0A3Q9ELG9, Y95A); test: Fluorescence competitive binding assay, Y75A mutant
Y75A mutant of AgifCSP5, sequence (A0A3Q9ELG9 entry or part of it Y95A): as the sequence (A0A3Q9ELG9 entry or part of it) above, with Y75A counted along it
Text: as §1, §2

[5] = wild-type AgifCSP5, 1-NPN displacement, pH 7.4, read-out: IC50
[6] = wild-type AgifCSP5, 1-NPN displacement, pH 7.4, read-out: Ki

## OCc1ccccc1 [Benzyl alcohol]
[1]
  IC50: 22.4 ± 4.58 µM
  Ki: 16.6 ± 3.39 µM

## C=C1CCC2(C(C)C)CC12 (stereo not shown) [Sabinene]
[1]
  IC50: 16.4 ± 0.94 µM
  Ki: 12.1 ± 0.69 µM
[2]; 10 mg/mL
  Behavioral response in words: significantly repelled only males
[2]; 100 mg/mL
  Behavioral response in words: significantly repelled; also recorded: repellent effects
[2]; low concentrations
  Behavioral response in words: did not show any repelling or attracting activity
[3]
  IC50: 22.4 ± 14.6 µM
  Ki: 20.6 ± 13.4 µM
[4]
  IC50: 26.2 ± 11.6 µM
  Ki: 18.6 ± 8.23 µM

## CC/C=C\CCO [Leaf alcohol]
[1]; [5]
  IC50: 27.9 ± 0.8 µM
[1]; [6]
  Ki: 20.6 ± 0.59 µM

## C=CC(=C)CC/C=C(\C)CCC=C(C)C [(E)-β-Farnesene]
[1]
  Binding affinity in words: weakly binds
[1]; [5]
  IC50: 25.9 ± 1.16 µM
[1]; [6]
  Ki: 19.2 ± 0.86 µM
[1]; listed as EBF
  Binding affinity in words: weak binding affinities

## CC1=CC[C@@H]2C[C@H]1C2(C)C [(1R)-(+)-α-Pinene]
[1]
  IC50: 22.5 ± 2.42 µM
  Ki: 16.7 ± 1.79 µM

## COC(=O)c1ccccc1O [Methyl salicylate]
[1]
  IC50: 20.6 ± 3.58 µM
  Ki: 15.3 ± 2.65 µM

## CCC/C=C/C=O [trans-2-Hexen-1-al]
[1]
  IC50: 18.1 ± 1.18 µM
  Ki: 13.4 ± 0.87 µM
[2]; 10 mg/mL
  Behavioral response in words: obviously repelled
[2]; 100 mg/mL
  Behavioral response in words: significantly repelled; also recorded: repellent effects
[2]; 100 mg/mL, listed as trans-2-hexenal
  Behavioral response in words: strongly repelled
[2]; low concentrations
  Behavioral response in words: did not show any repelling or attracting activity
[3]
  IC50: 15 ± 8.09 µM
  Ki: 13.8 ± 7.43 µM
[4]
  IC50: 14.6 ± 5.42 µM
  Ki: 10.4 ± 3.85 µM

## C=CC(=C)CCC=C(C)C [Myrcene]
[1]
  IC50: 22.5 ± 2.51 µM
  Ki: 16.7 ± 1.86 µM

## CC(=O)OC/C=C(\C)CCC=C(C)C [Geranyl acetate]
[1]
  IC50: 27.3 ± 4.87 µM
  Ki: 20.2 ± 3.61 µM

## CCCCCCCCCCCCCCCCCCC [Nonadecane]
[1]
  IC50: 38.9 ± 7.44 µM
  Ki: 28.8 ± 5.51 µM

## CCCCCCCCCCCCC [Tridecane]
[1]
  IC50: > 40 µM

## CC(=O)CCC=C(C)C [6-Methyl-5-hepten-2-one]
[1]
  IC50: 24.5 ± 1.43 µM
  Ki: 18.2 ± 1.06 µM

## CC/C=C\CCOC(C)=O [cis-3-Hexenyl acetate]
[1]
  IC50: 24.5 ± 0.49 µM
  Ki: 18.2 ± 0.36 µM

## C=C(C)[C@@H]1CC=C(C)CC1 [(S)-(−)-Limonene]
[1]; [5]
  IC50: 28.4 ± 2.84 µM
[1]; [6]
  Ki: 21 ± 2.1 µM

## CCCC/C=C\CCO [cis-3-Octen-1-ol]
[1]
  IC50: 17 ± 1.08 µM
  Ki: 12.6 ± 0.8 µM
[2]; 10 mg/mL
  Behavioral response in words: significantly repelled only males
[2]; 100 mg/mL
  Behavioral response in words: significantly repelled; also recorded: repellent effects
[2]; low concentrations
  Behavioral response in words: did not show any repelling or attracting activity
[3]
  IC50: 18.9 ± 9.83 µM
  Ki: 17.4 ± 9.03 µM
[4]
  IC50: 22.9 ± 6.68 µM
  Ki: 16.3 ± 4.75 µM

## CCCCCCCCCCCCCC=O [Tetradecanal]
[1]
  IC50: 20.6 ± 2.11 µM
  Ki: 15.3 ± 1.57 µM
[3]; R24A mutant
  Binding affinity of R24A compared with wild type, in words: increased the binding affinity

## CCCCCCCCCCCCCCCCCO [1-Heptadecanol]
[1]
  IC50: 21.4 ± 1.07 µM
  Ki: 15.8 ± 0.79 µM

## C=C(C)[C@H]1CC=C(C)CC1 [(R)-(+)-Limonene]
[1]; [5]
  IC50: 25.2 ± 4.06 µM
[1]; [6]
  Ki: 18.7 ± 3.01 µM

## CC1=COC(=O)C2C(C)CCC12 (stereo not shown) [Nepetalactone]
[1]
  Binding affinity in words: weakly binds
[1]; [5]
  IC50: 33.8 ± 6.81 µM
[1]; [6]
  Ki: 25 µM
[1]; listed as nephelactone
  Binding affinity in words: weak binding affinities

## O=Cc1ccccc1 [Benzaldehyde]
[1]
  IC50: 18.2 ± 0.88 µM
  Ki: 13.5 ± 0.65 µM
[2]; 100 mg/mL
  Behavioral response in words: significantly repelled; also recorded: repellent effects; also recorded: strongly repelled
[2]; low concentrations
  Behavioral response in words: did not show any repelling or attracting activity
[3]
  IC50: 17.3 ± 3.62 µM
  Ki: 15.8 ± 3.33 µM
[4]
  IC50: > 40 µM

## CCCCCC/C=C/C=O [trans-2-Nonenal]
[1]
  IC50: 16.6 ± 1.78 µM
  Ki: 12.3 ± 1.31 µM
[2]; 10 mg/mL
  Behavioral response in words: significantly attracted only female adults; also recorded: attractive
[2]; 100 mg/mL
  Behavioral response in words: significantly repelled
[3]
  IC50: 25.9 ± 16.4 µM
  Ki: 23.7 ± 15 µM
[4]
  IC50: > 40 µM

## C=CC(C)(O)CCC=C(C)C (stereo not shown) [Linalool]
[1]
  IC50: 25.5 ± 3.46 µM
  Ki: 18.9 ± 2.56 µM

## c1ccc(Nc2cccc3ccccc23)cc1 [1-NPN, N-phenyl-1-naphthylamine, reference compound]
[1]
  Kd: 3.64 µM
[3]
  Kd: 14.4 µM
[4]
  Kd: 3.13 µM

## CC/C=C\CCO [cis-3-Hexen-1-ol]
[1]
  IC50: 23.4 ± 5.54 µM
  Ki: 17.3 ± 4.1 µM

## C=C/C(C)=C\CC=C(C)C [(Z)-β-ocimene]
[1]; [5]
  IC50: 18 ± 2.89 µM
[1]; [6]
  Ki: 13.3 ± 2.14 µM
[2]; 100 mg/mL
  Behavioral response in words: significantly repelled; also recorded: repellent effects
[2]; low concentrations
  Behavioral response in words: did not show any repelling or attracting activity
[3]; R24A mutant, read-out: IC50
  IC50: 18.2 ± 1.97 µM
[3]; R24A mutant, read-out: Ki
  Ki: 16.7 ± 2.73 µM
[4]; Y75A mutant, read-out: IC50
  IC50: 30.8 ± 7.87 µM
[4]; Y75A mutant, read-out: Ki
  Ki: 21.9 ± 5.59 µM

## CC/C=C\CC1C(=O)CCC1CC(=O)OC (stereo not shown) [Methyl jasmonate]
[1]
  IC50: 20.1 ± 1.92 µM
  Ki: 14.9 ± 1.42 µM
[3]
  IC50: 8.89 ± 0.95 µM
  Ki: 8.16 ± 0.87 µM
[3]; R24A mutant
  Binding affinity of R24A compared with wild type, in words: increased the binding affinity; also recorded: increased affinities
[4]
  IC50: 29.7 ± 1.06 µM
  Ki: 21.1 ± 0.75 µM

## CCC/C=C\CO [cis-2-Hexen-1-ol]
[1]
  IC50: 34.5 ± 2.09 µM
  Ki: 25.6 ± 1.55 µM

## COc1cc(C(C)=O)cc(OC)c1O [Acetosyringone]
[1]
  IC50: 36.9 ± 6.77 µM
  Ki: 27.3 ± 5.01 µM

## CC1=CCC(C(C)(C)O)CC1 (stereo not drawn) [(+)-α-Terpineol]
[1]; [5]
  IC50: 29.4 ± 1.6 µM
[1]; [6]
  Ki: 21.8 ± 1.19 µM

## C=C(C)[C@@H]1CC=C(C)C(=O)C1 [(R)-(−)-Carvone]
[1]
  IC50: 23 ± 0.91 µM
  Ki: 17 ± 0.67 µM

## CC/C=C\CC=O [cis-3-Hexenal]
[1]
  IC50: 29.8 ± 1.55 µM
  Ki: 22 ± 1.15 µM

## CCCCCCCCCCCCCCCCCCCCC [Heneicosane]
[1]
  IC50: 22.5 ± 2.42 µM
  Ki: 16.7 ± 1.79 µM
